# According to PubChem BioAssay AID493002 (Sanford-Burnham Center for Chemical Genomics, 2010):
# Tested on: S. cerevisiae tim23-1 mutant growth, luminescence
# Test: tim23-1 mutant yeast growth inhibitors, dose response, luminescence, uHTS hits (AID 493002);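 further: yeast grown roughly 22 hours at 25 °C before the luminescence read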
row,Structure (SMILES),IC50
1,O=C(NC1CCCCC1)c1c(O)nc2sccn2c1=O,16.4 µM
2,CCCC(=O)NC(c1ccc(C(C)C)cc1)c1ccc2cccnc2c1O (configuration not stated),7.2 µM
3,Cc1cc(NC(=O)c2ccco2)sc1C,18 µM
4,CCOC(=O)c1cnc(-n2nc(C)cc2C)nc1NCCc1ccccc1,9.75 µM
5,COc1cccc(/C=N/NC(=O)c2cc(C34CC5CC(CC(C5)C3)C4)[nH]n2)c1,10.9 µM
6,O=C(c1ccccc1)N1N=C(c2cccs2)CC1c1ccccc1O (configuration not stated),22.8 µM
7,CCc1nc(SCc2ccccn2)c2c(=O)n(C)c(=O)n(C)c2n1,16.3 µM
8,Cc1[nH]c2ccccc2c1C(=O)/C=C/c1ccccc1,9.05 µM
9,O=C(N/N=C/c1cccc(F)c1)c1csc2c1CCCC2,11.4 µM
10,CC1CCc2c(sc3nc(C(C)(C)C)nc(N4CCN(C(=O)CCl)CC4)c23)C1 (configuration not stated),8.61 µM
11,OCCOCCNc1ncnc2c1c(-c1ccccc1)cn2-c1ccccc1,10.7 µM
12,Brc1ccc(-n2cnc(-c3ccccc3)c2)cc1,12.5 µM
13,O=C(Nc1cccc(Br)c1)C1CCCC1,7.64 µM
14,COc1cc(C2CC(c3cccs3)=NN2C(=O)CCl)ccc1OC(F)F (configuration not stated),21.9 µM
15,Cc1[nH][nH]c(=O)c1C(c1ccc(-c2ccc(Cl)cc2)o1)c1c(C)[nH][nH]c1=O,12.8 µM
16,Cc1ccc2nc(-c3ccc(N)cc3)sc2c1,9.95 µM
17,O=C(CCl)Nc1cccc(-c2cnc3ccccc3n2)c1,9.25 µM
18,O=c1c(O)c(-c2ccccc2)oc2cc(O)cc(O)c12,8.56 µM
19,O=S(=O)(Nc1cccc(-c2nc3cccnc3s2)c1)c1ccc2c(c1)OCCO2,11.6 µM
20,CC1(C)c2cc(Cl)ccc2-n2c1cc(O)c(-c1ccccc1)c2=O,11.9 µM
21,COc1cc(OC)cc(C(=O)Nc2ccc(Nc3ccccc3)cc2)c1,9.92 µM
22,CCOC(=O)Nc1ccc2c(c1)Nc1ccccc1S2,11.3 µM
23,COc1ccc(C(=O)N/N=C\c2coc3ccccc3c2=O)cc1,13.7 µM
24,O=C(CSc1ccccc1)N/N=C/c1ccccc1O,27.5 µM
25,Cc1ccc2[nH]c3ccccc3c(=O)c2c1,13.6 µM
26,Cc1ccc(CNc2oc(-c3cccs3)nc2C#N)cc1,25.6 µM

row,Structure (SMILES),IC50
1,C=C1CCc2c([nH]c3ccc(OCC(C)C)cc23)C1=O,3.33 µM
2,CC(C)c1nc(NCCO)c(C#N)c2c1CCCC2,12.4 µM
3,CSc1nnc(C(C)(C)C)c(=O)n1/N=C/c1ccccc1,13.6 µM
4,Oc1ccccc1C1NN=C(c2ccccc2)S1 (configuration not stated),18.3 µM
5,CCC(C)C(=O)Nc1nc2ccc(OC)cc2s1 (configuration not stated),18.1 µM
6,CC(=O)Nc1ccc(S(=O)(=O)N(Cc2cccnc2)Cc2cc3ccc(C)cc3[nH]c2=O)cc1,23.1 µM
7,Nc1ccc(/C=C/C(=O)c2cccs2)cc1,4.31 µM
8,Cc1ccc2[nH]cc(C(=O)CCl)c2c1,6.02 µM
9,CC(C)(C)c1ccc(Oc2ccc(N)cc2)cc1,4.63 µM
10,Nc1ccc(O)c2c1C(=O)c1ccccc1C2=O,11.3 µM
11,CCC(C)NC(=O)c1c(N)n(CCCOC)c2nc3ccccc3nc12 (configuration not stated),14.1 µM
12,Cc1ccc2nc(NC(=O)COC(=O)c3cccnc3)sc2c1,9.58 µM
13,Cc1ccc(Nc2nc(-c3sc(N)nc3C)cs2)cc1,13.4 µM
14,Cc1ccc(CS(=O)(=O)c2ncc(Cl)c(C(=O)Nc3ccc(OC(F)F)cc3)n2)cc1,1.86 µM
15,Cc1ccc(-c2nn(-c3ccccc3)cc2NC(=O)CCl)cc1,4.31 µM
16,Cc1ccccc1OCCCSc1nc2ccccc2[nH]1,9.44 µM
17,COc1cccc(C2=NN(C(=O)c3ccco3)C(c3ccco3)C2)c1 (configuration not stated),20.4 µM
18,O=C(Nc1ccc2nc(-c3ccccc3)[nH]c2c1)c1cccs1,3.62 µM
19,O=C1/C(=C/c2ccncc2)SC(=S)N1C1CCCCC1,5.72 µM
20,O=Cc1cn(CCOc2ccccc2F)c2ccccc12,13 µM
21,O=c1c2ccccc2[nH]c(=S)n1CCN1CCC(=C(c2ccc(F)cc2)c2ccc(F)cc2)CC1,5.44 µM
22,CC1(C)CC(=O)C=C(c2ccc(I)cc2)C1,14.8 µM
23,Cc1nn(CC(=O)Nc2nc3ccccc3s2)c(C)c1[N+](=O)[O-],8.41 µM
24,C/C(=N\Nc1ccc([N+](=O)[O-])cc1)c1ccc(O)cc1,5.17 µM
25,COc1ccc(C(=O)c2sc(Nc3ccccc3F)nc2N)cc1,8.51 µM
26,CC(C)OC(=O)c1cccnc1SCc1cc(=O)n2ccccc2n1,9.68 µM

row,Structure (SMILES),IC50
1,Cc1ccc(SCC(=O)OCn2nnc3ccccc3c2=O)cc1C,9.99 µM
2,Cc1ccc(O)c(C(=O)c2cnn(C(=O)Cc3csc(C)n3)c2)c1,12.4 µM
3,O=C(NCc1ccc2c(c1)OCO2)c1c(O)nc2sccn2c1=O,6.15 µM
4,Nc1cc([N+](=O)[O-])cc2oc(-c3ccccc3)cc12,13.1 µM
5,Cc1ccc(-c2nnc(N3CCN(c4ccccn4)CC3)c3ccccc23)cc1,7.64 µM
6,Cc1ccc(-c2nc(CNC(=O)c3cc(C)on3)cs2)cc1,15 µM
7,O=Cc1cccnc1SCc1ccccc1,12.6 µM
8,CC1=C(C)/C(=N/OC(=O)c2cccc([N+](=O)[O-])c2)C=CC1=O,8.03 µM
9,Cc1csc2nc(O)c(C(=O)NCCCc3ccccc3)c(=O)n12,7.87 µM
10,O=C1/C(=C/c2cccs2)Cc2ccccc21,16.1 µM
11,O=C(Nc1ccccc1)C1C(c2ccccc2)C1(Cl)Cl (configuration not stated),14.9 µM
12,COc1ccc2c(=O)c3c(=O)n(Cc4ccco4)c(-c4ccc(C)cc4)nc3oc2c1,20 µM
13,Cc1ccccc1[C@@]1(C)ON(c2ccccc2C(F)(F)F)C1=O,7.04 µM
14,Oc1ccccc1-c1cc(-c2ccccc2)n[nH]1,15.8 µM
15,c1ccc(-c2nc(NCc3cccs3)c3ccccc3n2)cc1,12.7 µM
16,CC(C)N=c1scc(-c2ccco2)n1/N=C/c1ccc(O)c(O)c1,11.9 µM
17,O=C(/C=C/c1ccccc1)Oc1cccc2cccnc12,21.3 µM
18,CCOC(=O)c1cccc(NC(=O)c2cc3ccccc3o2)c1,14.3 µM
19,O=C(Nc1ccc(Nc2ccccc2)cc1)c1ccc(Cl)c([N+](=O)[O-])c1,6.25 µM
20,CCc1sc(C(=O)Nc2nccs2)cc1C,16 µM
21,N#C/C(N)=C(/C#N)N=Cc1cccc(Cl)c1,8.99 µM
22,COCCNC(=O)/C(C#N)=C/c1ccc(OCc2ccccc2)cc1,9.3 µM
23,O=C(Nc1ccc(-c2ccc(N3CCCCC3)nn2)cc1)c1ccco1,10 µM
24,O=[N+]([O-])c1ccc(N/N=C/c2cccc(O)c2)cc1,6.99 µM
25,O=c1cc(C(Cl)(Cl)Cl)oc2c1ccc1ccccc12,2.2 µM
26,Nc1ccc(N=Nc2ccccc2O)c(N)c1,15.3 µM

row,Structure (SMILES),IC50
1,O=C(CN1C(=O)S/C(=C/c2ccncc2)C1=O)Nc1ccccc1,13.5 µM
2,CC1CCC(NC(=O)c2cc(C3CC3)nn2-c2ccccc2)CC1 (configuration not stated),15.8 µM
3,O=[N+]([O-])c1ccccc1S(=O)(=O)Nc1cccc2cccnc12,7.7 µM
4,Oc1ccc(Br)cc1/C=N/Nc1ccccn1,6.87 µM
5,COC(=O)c1cccc(NC(=O)c2ccc(OC)c(Cl)c2)c1,20.6 µM
6,O=C(Nc1ccc(-c2cn3c(n2)SCC3)cc1)c1ccco1,8.88 µM
7,CCOc1cc(/C=C2\SC(N3CCCC(C)C3)=NC2=O)ccc1O (configuration not stated),28.8 µM
8,N#Cc1c(NC(=O)C2CC2)sc2c1CCCCC2,14.6 µM
9,CC1CCc2c(c3ccccc3n2C(=O)CCl)C1 (configuration not stated),3.68 µM
10,Cn1c(C(=O)Nc2ccc3c(c2)OCCO3)cc2sccc21,12.1 µM
11,O=C1c2cccc3c(Cl)ccc(c23)C(=O)N1O,9.64 µM
12,Cc1cc(Nc2ccccc2)nn1C(=O)c1ccccc1,12 µM
13,CCOC(=O)CSc1c(-c2cccs2)[nH]c2ccccc12,15.2 µM
14,O=C(CS(=O)(=O)c1ccccc1)Nc1nc(-c2ccc(F)cc2)cs1,14.2 µM
15,O=C(Nc1ccc(C(=O)N2CCCc3ccccc32)cc1)c1cccs1,7.75 µM
16,O=C(CSc1cccc[n+]1[O-])CSc1cccc[n+]1[O-],5.83 µM
17,CCOc1ccc(N=C(C)C2=C(O)c3ccccc3C2=O)cc1,11.2 µM
18,O=C1/C(=C/c2cccs2)COc2ccccc21,8.37 µM
19,COc1cc(NC(=O)c2cccs2)ccc1NC(=O)c1ccccc1Cl,6.75 µM
20,Cc1ccccc1C(=O)Oc1cccc2c(O)cccc12,8.53 µM
21,CCCCCCSC1=C(C#N)C(c2ccccc2)CC(=O)N1 (configuration not stated),13.4 µM
22,NC(=S)NNc1cc(Cl)cc(Cl)c1,10.5 µM
23,Cc1ccn(-c2ccc(NC(=O)c3cccs3)cc2)n1,7.04 µM
24,CCN(CC)c1ccc(C(=O)Nc2cccc(F)c2)cc1,5.19 µM
25,Cc1ccc(C(=O)NC2=NCCS2)cc1Cl,16.6 µM
26,Cc1ccc(Nc2ccc([N+](=O)[O-])nc2[N+](=O)[O-])cc1,44.3 µM

row,Structure (SMILES),IC50
1,COc1ccc(C(C[N+](=O)[O-])c2c(C)[nH]n(-c3ccccc3)c2=O)cc1 (configuration not stated),7.55 µM
2,O=C(Nc1cccc(NC(=O)c2ccco2)c1)c1cccc(Br)c1,13.1 µM
3,CCc1sc(C(=O)Nc2ccc3c(c2)OCO3)cc1C,19.2 µM
4,Cc1cccc(C(=O)OCC(=O)NC23CC4CC(CC(C4)C2)C3)c1O,12.5 µM
5,COC(=O)c1ccc(NC(=O)c2nc(S(=O)(=O)Cc3cccc(C)c3)ncc2Cl)cc1,1.09 µM
6,COc1cc2c3c(c1)C(C)=CC(C)(C)N3C(=O)C2=O,8.81 µM
7,O=S1(=O)N[C@@H](Cc2ccccc2)COc2cc(Br)ccc21,18.4 µM
8,N#C/C(=C\c1cc(Cl)cc(Cl)c1O)C(=O)NC1CCCCC1,10 µM
9,CC(C)(C)C(=O)c1sc(Nc2ccccc2)nc1N,12 µM
10,Cc1ccc2occ(/C=N/NC(=O)c3ccncc3)c(=O)c2c1,21.6 µM
11,CCOC(=O)c1c(N)sc(C(=O)Nc2ccccc2)c1C,4.11 µM
12,O=C(/C=C/c1ccccc1)Nc1ccc2c(c1)OCCO2,11.7 µM
13,COc1ccc(CCn2c(C(C)C)nc3oc4ccccc4c(=O)c3c2=O)cc1,14.2 µM
14,CN=c1scc(-c2cccs2)n1/N=C/c1ccc(O)c(O)c1O,10.5 µM
15,O=C(N/N=C/C(Cl)=C\c1ccccc1)c1cccs1,4.85 µM
16,Cc1ccc(C(=O)Nc2nc(C(C)(C)C)cs2)s1,13.6 µM
17,Cn1cccc1-c1nc2ccc(NC(=O)c3cccs3)cc2[nH]1,10.8 µM
18,O=C(CC(=O)c1c(F)cccc1Cl)c1ccccc1O,15.7 µM
19,COc1ccc(NC(=O)Nc2cccc3cccnc23)cc1,40.1 µM
20,CC(=O)Nc1ncnc2c1c(-c1ccc(Cl)cc1)nn2C(C)(C)C,10 µM
21,C/C=C/c1ccc(OCCOc2cc(C=O)ccc2OC)c(OC)c1,8.44 µM
22,CCN(CC)c1ccc(/C=C2/C(=O)ON=C2C)cc1,14.6 µM
23,CC(=O)Nc1cccc(-c2cc(-c3c(Cl)cccc3Cl)no2)c1,11.1 µM
